Assay [1] has as its system endothelin-1-induced increase in cytosolic calcium ion concentration, rat aortic smooth muscle A7r5 cells. As to the kind of experiment: Inhibition of the endothelin-1-induced increase in cytosolic calcium ion concentration in A7r5 cells. It counts as cell-based. As to conditions: fura-2, compound 1 min before 10^-8 M endothelin-1, read-out: IC50 (Ca^2+): inhibition of endothelin-1-induced increase in cytosolic calcium concentration. On the procedure:
Inhibition of the Endothelin-1-induced Increase in Cytosolic Calcium Ion Concentration
To a cuvette was put a suspension of rat aortic smooth muscle A7r5 cells (Dainippon Pharmaceutical Co., Ltd.) on which 2 μM fura-2 (Dojin) has been loaded. The change in fluorescence intensity was determined with a calcium analyzer (CAF100, Nippon Bunkou Co.). In the determination, the excitation was performed at 340 nm and 380 nm and the recording at 510 nm. The cytosolic calcium concentration was calculated according to the method of Grynkiewicz et al., J. Biol. Chem., 260., pp. 3440-3450, 1985.
The experiment was carried out by adding a compound (I) of the present invention to the cell suspension in cuvette, incubating for 1 min, adding 10^-8 M endothelin-1, and measuring the change in fluorescence intensity.

Assay [2] addresses T1, endothelin receptor (smooth muscle A7r5 cells derived from rat aorta) (Rattus norvegicus, UniProt P26684).
T1 construct: Smooth muscle A7r5 cells derived from rat aorta; endogenous in cells; host or cells: A7r5 (rat aortic smooth muscle)
T1 sequence (P26684 21-426): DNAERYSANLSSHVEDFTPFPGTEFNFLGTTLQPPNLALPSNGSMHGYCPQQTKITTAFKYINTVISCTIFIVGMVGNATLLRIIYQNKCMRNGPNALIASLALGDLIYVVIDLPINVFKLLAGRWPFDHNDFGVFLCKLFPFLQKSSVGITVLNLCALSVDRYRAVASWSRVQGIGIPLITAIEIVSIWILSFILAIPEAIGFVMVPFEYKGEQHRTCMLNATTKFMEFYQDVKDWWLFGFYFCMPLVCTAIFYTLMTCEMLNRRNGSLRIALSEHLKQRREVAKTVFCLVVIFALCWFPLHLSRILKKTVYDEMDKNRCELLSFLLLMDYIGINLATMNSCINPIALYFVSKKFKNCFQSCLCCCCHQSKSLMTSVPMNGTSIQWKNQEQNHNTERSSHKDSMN
As to the kind of experiment: Inhibitory effect on the binding of 125I-endothelin-1 to its receptor (rat aorta smooth muscle A7r5 cells). To be noted: 25 pM 125I-endothelin-1, 37° C., 1 hr, read-out: IC50 binding: 50% inhibition of the specific binding of 125I-endothelin-1 to its receptor. On the procedure: Inhibitory Effect on the Binding of ^125 I-Endothelin-1 to its Receptor
Smooth muscle A7r5 cells derived from rat aorta were incubated with 25 pM ^125 I-endothelin-1 at 37° C. for 1 hr in the presence or absence of a compound (I) of the present invention. After completion of the reaction, ^125 I-endothelin-1 bound to membrane fraction was separated by filtrating through glass fiber filters and the radioactivity was determined with a gamma-counter. The specific binding was calculated by subtracting the nonspecific binding which was determined in the presence of 10^-7 M non-radioactive endothelin-1 from the total binding.

The target in assay [3] is T2, endothelin-1-induced contraction, isolated rat thoracic aorta (Rattus norvegicus, UniProt P26684).
T2 construct: specimens isolated from rat thoracic aorta; from tissue; host or cells: rat thoracic aorta, transverse strips
T2 sequence (P26684 21-426): T1 sequence (P26684 21-426)
Briefly: Inhibition of endothelin-1-induced contraction in isolated rat thoracic aorta. As to conditions: 10^-8, 3×10^-8, 10^-7 M, 10 min, 37° C. As for the experimental part:
Inhibition of Endothelin-1-induced Contradiction in Isolated Rat Thoracic Aorta
Transverse Stip specimens isolated from rat thoracic aorta were suspended in modified Locke-Ringer solution at 37° C. while aerating with mixed gas (95% O2 +5% CO2), and the isometric tension was recorded. Four specimens derived from each rat were used in the test. Thus, three specimens were treated with compound 1c (disodium salt; prepared in Example 1 or 3) of different concentration (10^-8 M, 3×10^-8 M, and 10^-7 M) for 10 min and the rest was untreated before the measurement of isometric tension.

Assay [4] deals with endothelin-1-induced hypertension, pithed rat. Briefly: Inhibition of endothelin-1-induced hypertension in pithed rat. The assay is classed as in vivo. To be noted: intravenous, dose between 0.01 and 1 mg/kg. As for the experimental part:
Inhibition of Endothelin-1-induced Hypertension in Pithed Rat
Under ether anesthesia, a stainless-steal rod (diameter: 2 mm) was inserted from right orbital to spinal end of a rat. The resultant pithed rat was placed under artificial respiration and the change in blood pressure was recorded. Drugs (endothelin-1 and compound 1c prepared in Example 1 or 3) were administered intravenously.

Where two headings read alike, the source gives them in different places.

`CC1(C)CC[C@]2(C(=O)O)CC[C@]3(COC(=O)/C=C/c4cc(O)ccc4NCC(=O)O)C(=CCC4[C@@]5(C)CCC(=O)C(C)(C)C5CC[C@]43C)[C@@H]2C1` (stereo partly drawn) [Compound 1n]: the IC50 in assay [1] (Rattus norvegicus) and in assay [2] was 3 nM in each case.
For `CC1(C)CC[C@]2(C(=O)O)CC[C@]3(COC(=O)/C=C/c4cc(O)ccc4N)C(=CCC4[C@@]5(C)CCC(=O)C(C)(C)C5CC[C@]43C)[C@@H]2C1` (stereo partly drawn) [Compound 1a], the values for the IC50 in assay [1] (Rattus norvegicus) and in assay [2] were 4.5 nM and 24 nM, respectively.
For `CC1(C)CC[C@]2(C(=O)O)CC[C@]3(COC(=O)/C=C/c4ccc(O)c(O)c4)C(=CCC4[C@@]5(C)CCC(=O)C(C)(C)C5CC[C@]43C)[C@@H]2C1` (stereo partly drawn) [Compound 50-235, reference compound], the results for the IC50 in assay [1] (Rattus norvegicus) and in assay [2] were 10 nM and 76 nM, respectively.
For the compound `CC1(C)CC[C@]2(C(=O)O)CC[C@]3(COC(=O)/C=C/c4cc(O)ccc4NC(=O)/C=C/C(=O)O)C(=CCC4[C@@]5(C)CCC(=O)C(C)(C)C5CC[C@]43C)[C@@H]2C1` (single isomer, unassigned) [Compound 1c], in assay [3], the “shift of endothelin-1 concentration-contraction curve” value is “shifts the concentration-contradiction curve to right in a concentration-dependent manner”. The Kb in assay [3] (read-out: pA2 value, endothelin-1 concentration-contraction curve (converted)) was 1.58 nM. Further, the “decrease of blood pressure” value in assay [4] was “decreased the blood pressure in a dose-dependent manner”. The results for the IC50 in assay [1] and in assay [2] were 2.6 nM and 0.7 nM, respectively.
For `CC1(C)CC[C@]2(C(=O)O)CC[C@]3(COC(=O)/C=C/c4cc(O)ccc4NC(=O)CC(=O)O)C(=CCC4[C@@]5(C)CCC(=O)C(C)(C)C5CC[C@]43C)[C@@H]2C1` (stereo partly drawn) [Compound 1h], the IC50 is 5.6 nM in assay [1] (Rattus norvegicus) and 9 nM in assay [2].
In the same order, the values of `COC(=O)/C=C/C(=O)Nc1ccc(O)cc1/C=C/C(=O)OC[C@@]12CC[C@@]3(C(=O)O)CCC(C)(C)C[C@H]3C1=CCC1[C@@]3(C)CCC(=O)C(C)(C)C3CC[C@]12C` (stereo partly drawn) [Compound 1m] are 2.7 nM and 5 nM.
In the same order, the values of `CC1(C)CC[C@]2(C(=O)O)CC[C@]3(COC(=O)/C=C/c4cc(O)ccc4NC(=O)/C=C\C(=O)O)C(=CCC4[C@@]5(C)CCC(=O)C(C)(C)C5CC[C@]43C)[C@@H]2C1` (stereo partly drawn) [Compound 1d] are 3 nM and 3.4 nM.
In the same order, the values of `CC1(C)CC[C@]2(C(=O)O)CC[C@]3(COC(=O)/C=C/c4cc(O)ccc4NS(=O)(=O)O)C(=CCC4[C@@]5(C)CCC(=O)C(C)(C)C5CC[C@]43C)[C@@H]2C1` (stereo partly drawn) [Compound 1k] are 2.8 nM and 2.9 nM.
As to `CC1(C)CC[C@]2(C(=O)O)CC[C@]3(COC(=O)/C=C/c4cc(O)ccc4NC(=O)CCCC(=O)O)C(=CCC4[C@@]5(C)CCC(=O)C(C)(C)C5CC[C@]43C)[C@@H]2C1` (stereo partly drawn) [Compound 1i], the IC50 in assay [1] (Rattus norvegicus) came out at 4.6 nM; in assay [2], 6.6 nM.
For `CC1(C)CC[C@]2(C(=O)O)CC[C@]3(COC(=O)/C=C/c4cc(O)ccc4NC(=O)C(=O)O)C(=CCC4[C@@]5(C)CCC(=O)C(C)(C)C5CC[C@]43C)[C@@H]2C1` (stereo partly drawn) [Compound 1g], the figures for the IC50 in assay [1] (Rattus norvegicus) and in assay [2] were 2.5 nM and 1.8 nM, respectively.
Taken in the same sequence, the figures for `CC1(C)CC[C@]2(C(=O)O)CC[C@]3(COC(=O)/C=C/c4cc(O)ccc4NC(=O)CCC(=O)O)C(=CCC4[C@@]5(C)CCC(=O)C(C)(C)C5CC[C@]43C)[C@@H]2C1` (stereo partly drawn) [Compound 1e] were 3.5 nM and 3.6 nM.
Taken in the same sequence, the figures for `CC1(C)CC[C@]2(C(=O)O)CC[C@]3(COC(=O)/C=C/c4cc(O)ccc4NC(=O)/C=C/C(=O)O)C(=CCC4[C@@]5(C)CCC(=O)C(C)(C)C5CC[C@]43C)[C@@H]2C1` (single isomer, unassigned) [Compound 1b] were 2.6 nM and 0.5 nM.

The values are drawn from patent US5463107A, “Triterpene derivatives and endothelin-receptor antagonists containing the same” (Shionogi & Co., Ltd., priority 1993, dated 1995).
